These results are taken from patent publication USRE50230E1, “Method of treatment of hypoxia inducible factor (HIF)-related conditions” (GRIFOLS WORLDWIDE OPERATIONS LIMITED, priority 2014, dated 2024).

Common to all, as to assay type: cell-based, human
In data set [1] the test system is HIF1alpha protein. Kind of data set: HIF1alpha protein levels by ELISA in SH-SY5Y cells. On the procedure:
Human neuroblastoma SH-SY5Y cell line cells, cultured in serum free media were treated with plasma derived ApoTf and HoloTf (in both cases at a concentration of 1 mg/mL and 4 mg/mL) for 6 hours under normoxia (21% oxygen) and hypoxia conditions (1% oxygen). […] After 6 hrs intracellular proteins were harvested and tested for HIF1alpha protein levels by ELISA.
Experiment performed in example 1 was repeated but performing treatments for 24 hours and only under normoxic conditions. After 24 hrs intracellular proteins were harvested and tested for HIF1 alpha protein levels by ELISA.
After 6 hrs, intracellular proteins were harvested and tested for HIF1 alpha protein levels by ELISA.
To determine whether Apotransferrin increases the potency of the iron chelator, DFO, and the phd2 inhibitor IOX2; SH-SY5Y neuronal cells cultured in serum free media were treated with 4 mg/mL of the indicated proteins in the presence or absence of small molecule drug under normal oxygen levels. The data shown in FIG. 8A relates to treatment of cells with a combination of DFO or IOX2, at the indicated concentrations, plus 4 mg/mL protein. CoCl2 was used as an experimental positive control. The data shown in FIG. 8B relates to treatment of cells with a combination of 10 uM M30 plus/minus 4 mg/mL protein. The data shown in FIG. 8C relates to treatment of cells with a combination of 200 uM DFO plus/minus 4 mg/mL protein. After 6 hrs intracellular proteins were harvested and tested for HIF1 alpha protein levels by ELISA. Data are shown in pg/mL with standard deviation.

Data set [2] concerns Glut1. Description: Glut1 mRNA expression by qPCR in SH-SY5Y cells. On the procedure: (§1) The stabilization of, and increase in, HIF-1α protein typically leads to an up-regulation of HIF-related genes (increase in the transcription of genes targeted by HIF), i.e. genes that have HIF binding sites in their transcriptional regulatory elements. Two well characterized genes that are activated by HIF-1α protein are Glut1 receptor and VEGF. Therefore, in order to analyze mRNA expression changes in each of these HIF target genes SH-SY5Y cell line cells were cultured and treated with majority ApoTf or majority HoloTf at a concentration of 1 mg/mL and 4 mg/mL under normoxic (21% oxygen) or hypoxic (1% oxygen) conditions for 6 hours. As a negative controls, cells were treated with HSA (1 mg/mL or 4 mg/mL) or were left untreated. After 6 hrs, intracellular mRNA was harvested and tested for Glut1 and VEGF expression levels by qPCR. Expression results were calculated relative to the expression of the corresponding transcript seen in untreated cells. FIGS. 4A and 4B show the expression results obtained for Glut1 receptor and VEGF, respectively. Values in the figures are shown as Relative Gene Expression, with the target gene (Glut1 or VEGF) normalized for housekeeper (beta-actin) expression.
(§2) In addition, mRNA expression levels of Glut1 and VEGF in response to majority Apotransferrin and DFO or IOX2 combinations were determined. […] Where indicated, either 200 uM DFO or 1 uM IOX2 were co-treated with the HSA and majority Apotransferrin. After 6 hr treatments, intracellular mRNA was harvested and tested for Glut1 and VEGF expression levels by qPCR. Values are shown as Relative Gene Expression, with the target gene (Glut1 or VEGF) normalized for housekeeper (beta-actin) expression. Standard deviations are shown.
For orientation: Quantitative PCR measures a nucleic acid by following its amplification.

The subject of data set [3] is VEGF. Kind of data set: VEGF mRNA expression by qPCR in SH-SY5Y cells. On the procedure:
as §1, §2

The test system of data set [4] is SH-SY5Y cells. Kind of data set: Cell Titer Glow viability assay, SH-SY5Y cells. The conditions noted are these: 4 mg/mL, 72 hours. On the procedure:
Since it has been reported that HoloTf is toxic to cells in vivo and in vitro, toxicity of various compositions containing majority ApoTf, majority HoloTf or mixtures of ApoTf+HoloTf was tested in SH-SY5Y cells. SH-SY5Y cells were treated with the indicated concentrations of 4 mg/mL Tf (as indicated in FIG. 5A), M30 or DFO for 72 hours. After 72 hours, cells were subjected to a Cell Titer Glow viability assay. Control cells, untreated cells, were set to a value of 100% viable. The average viability and standard deviations are shown for each treatment condition.
A general note: Cellular ATP, detected with luciferase, serves as a proxy for viable cell number.

Data set [5] has as its system SH-SY5Y cells. Kind of data set: Protection from oligomerized Abeta 1-42 toxicity, ApoGlo caspase 3/7 activation assay. The conditions noted are these: for inherent toxicity: 4 mg/mL; for protection from Abeta induced toxicity (caspase 3/7 induction): 4 mg/mL for 24 hrs, then oligomerized Abeta1-42 for 72 hours. From the text:
Upregulation of the HIF pathway is known to play a protective role in a number of neurodegenerative diseases, including pathologies that result in destruction of nerve cells and neurons. Such neurodegenerative diseases include Alzheimer's disease, Parkinson's disease, Huntington's disease, and Amylotrophic Lateral Sclerosis. Since treatment of SH-SY5Y upregulates HIF, treatment of cells with Apo- or Holo-transferrin should provide a protective effect on cells subjected to substances known to induce neurodegeneration. FIG. 7 highlights data assessing whether majorities of Apo- and Holo-transferrin could protect SH-SY5Y cells from the toxic effects of the known neurodegenerative toxin oligomerized Abeta 1-42 peptide (FIG. 7). SH-SY5Y neuronal cells cultured in growth media were treated with 4 mg/mL Apo-transferrin or Holo-transferrin for 24 hrs under normal oxygen levels. After 24 hrs, cells were treated with oligomerized Abeta1-42 peptide for an additional 72 hours. Following treatment with oligomerized Abeta1-42, cells were subjected to a ApoGlo caspase 3/7 activation assay. Control cells, untreated cells, were set to a normalized value of 1. The average caspase induction, relative to control cells, and standard deviations are shown for each treatment condition.

Data set [6] relates to NCI-H1650. Kind of data set: Cell Titer Glow viability assay, NCI-H1650. The conditions noted are these: 4 mg/mL, 72 hours. On the procedure: Given the anticipated safety profile of a human plasma protein, toxicity of transferrins (majority Apo, majority Holo and pd-transferrin) in NCI-H1650 and primary human hepatocyte cells was assessed. The human lung cell line, NCI-H1650, and primary human hepatocytes were treated for 72 hours with 4 mg/mL of majority ApoTf, majority HoloTf, or pd-transferrin. After 72 hours, cells were subjected to a Cell Titer Glow viability assay. Control cells, untreated cells, were set to a value of 100% viable. The average viability and standard deviations are shown in FIGS. 14A and 14B for each treatment condition.

[7] abbreviates: 1 mg/mL, 6 hours, hypoxia (1% oxygen), SH-SY5Y.
The mark [8] stands for this setting: 1 mg/mL, 6 hours, normoxia (21% oxygen), SH-SY5Y.
The mark [9] stands for this setting: 1 mg/mL, 24 hours, normoxic, SH-SY5Y.
The mark [10] stands for this setting: 4 mg/mL, 6 hours, hypoxia (1% oxygen), SH-SY5Y.
Where [11] appears, read: 4 mg/mL, 6 hours, normoxia (21% oxygen), SH-SY5Y.
Where [12] appears, read: 4 mg/mL, 24 hours, normoxic, SH-SY5Y.
The mark [13] stands for this setting: 6 hours, normoxic, SH-SY5Y (FIG. 3).
Setting [14] is: normoxic (21% oxygen), 6 hours, 1 mg/mL and 4 mg/mL.
Setting [15] is: 4 mg/mL, co-treated with 200 uM DFO or 1 uM IOX2, 6 hr, normal oxygen.
Where [16] appears, read: hypoxic (1% oxygen), 6 hours, 1 mg/mL and 4 mg/mL.

For the substance “majority HoloTf: plasma derived transferrin composition, majority diferric holo-transferrin (30% ApoTf, 70% HoloTf)”, the “HIF-1α cellular protein levels” value in data set [1] (setting [7]) is listed as “significant increase”; in data set [1] (setting [8]), “significant increase”; in data set [1] (setting [9]), “tendency towards an increase”; in data set [1] (setting [10]) it was “tendency towards an increase”; in data set [1] (setting [11]), “significant increase”; in data set [1] (setting [12]), “significant increase”. In data set [1] (setting [13]), the “HIF-1α cellular protein levels” value is given as “increase”. Besides, the “Glut1 mRNA expression” value in data set [2] (setting [14]) is “increased expression”. For the same substance, the “VEGF mRNA expression” value in data set [3] (setting [14]) is reported as “increased expression of only Glut1”. Also, the “toxicity (cell viability)” value in data set [4] is on record as “no toxicity or detrimental effects”; in data set [6], “no toxicity”. In data set [5], the inherent toxicity result is listed as “lack of inherent toxicity”. The “protection from Abeta induced toxicity (caspase 3/7 induction)” value in data set [5] was “protect SH-SY5Y cells from Abeta induced toxicity”.

In the case of “majority ApoTf: plasma derived transferrin composition, majority iron-free apo-transferrin (98% ApoTf, 2% HoloTf)”, the “HIF-1α cellular protein levels” value is reported as “significant increase” in data set [1] (setting [7]); “significant increase” in data set [1] (setting [8]); “increased” in data set [1] (setting [9]); “significant increase” in data set [1] (setting [10]); “significant increase” in data set [1] (setting [11]); “increased” in data set [1] (setting [12]). In addition, in data set [1] (setting [13]), the “HIF-1α cellular protein levels” value is recorded as “increase”. The “effect on HIF1 alpha protein levels in combination with M30” value in data set [1] (4 mg/mL protein plus 10 uM M30, 6 hrs, normal oxygen, SH-SY5Y) was “synergistic effects”. The “effect on HIF1 alpha protein levels in combination with DFO” value in data set [1] (4 mg/mL protein plus 200 uM DFO, 6 hrs, normal oxygen, SH-SY5Y) is recorded as “synergistic effects”. Moreover, the “Glut1 mRNA levels in combination with small molecule activators of the HIF pathway” value in data set [2] (setting [15]) is “increase synergistically and additively”. The “Glut1 mRNA expression relative to HSA controls” value in data set [2] (setting [16]) is “significantly increased”. For the same substance, the “VEGF mRNA levels in combination with small molecule activators of the HIF pathway” value in data set [3] (setting [15]) was “increase synergistically and additively”. Moreover, in data set [3] (setting [16]), the “VEGF mRNA expression relative to HSA controls” value is on record as “significantly increased”. Further, the figures for the “toxicity (cell viability)” value in data set [4] and in data set [6] were “No toxic effects” and “no toxicity”, respectively. In addition, the inherent toxicity entry in data set [5] is “lack of inherent toxicity”. The “protection from Abeta induced toxicity (caspase 3/7 induction)” value in data set [5] is recorded as “protect SH-SY5Y cells from Abeta induced toxicity”.
